SMILES strings stand for the structures. A value given as a limit tells only on which side of the number the result lay.

The text below walks through data of article PMC5471521, “Novel selective β1-adrenoceptor antagonists for concomitant cardiovascular and respiratory disease” (The FASEB Journal, 2017).

Data set [1] addresses T1, human β1-AR (Homo sapiens, UniProt P08588).
T1 construct: expressed in transfected cells
Briefly: 3H-CGP12177 whole-cell binding in CHO-β1 cells. The note with it: for Kd: CHO-β1 cells, mean ± SEM, read-out: Human β1-AR Log Kd (converted); for SI1a (in vitro binding) = Kd,β2/Kd,β1: Kd values from 3H-CGP12177 whole-cell binding, Table 1.

The target of data set [2] is T1, human β1-AR. In words: 3H-cAMP accumulation agonist response in CHO-β1 cells. It counts as cell-based. The note with it: agonist mode. The method, then:
Confluent cells were examined (24-well plates, 5 h incubation at 37°C) as described in Baker ([45]). Antagonist Kd values were calculated from a rightward shift of the agonist concentration response curve by using the Gaddum equation as previously described ([46]).

Data set [3] in a line: Bidirectional CaCo-2 permeability. In kind it is in vitro ADME. The note with it: human, hydrochloride salts used; for efflux ratio at 90 min, 20 µM: Caco-2, pH 7.4, read-out: Efflux ratio Papp, B-A/Papp, A-B; for Papp A→B at 90 min, 20 µM: Caco-2, pH 7.4, 90 min, mean ± SD. The method, then: (§1) CaCo-2 cells were grown in Transwell permeable supports, and confluency was assessed by transepithelial electrical resistance measurements (>270 Ω/cm^2) and by unidirectional permeability (apical-basolateral) of the low- and high-permeability reference compounds, ^14C-mannitol and ^3H-propranolol. NDD-713.HCl and -825.HCl (20 µM in HBSS that contained 20 mM HEPES, pH 7.4) were transferred to the donor compartment of Transwell plates and the acceptor compartments were filled with blank HBSS. Permeability was determined over 90 min by sampling both compartments. Quantitation of compound concentrations in donor and acceptor samples was by liquid chromatography–mass spectrometry (LC-MS; lower limit of quantification, 0.5–1.5 ng/ml), and for ^14C-mannitol and ^3H-propranolol, by liquid scintillation counting. Apparent permeability coefficients (Papp) were calculated as follows: Papp (cm/s) = dQ/dT × 1/(C0 × A), where dQ/dt = apparent steady-state transport rate (μmol/s); C0 = initial concentration in the chamber (μmol/cm^3); and A = surface area of CaCo-2 monolayer (0.3cm^2). Efflux ratios were calculated as the ratio of mean Papp values in B→A and A→B directions. Studies were carried out by CDCO.
A general note: Passage across Caco-2 layers is used to estimate intestinal permeability.

The subject of data set [4] is CaCo-2 cells. Briefly: Bidirectional CaCo-2 permeability. In kind it is in vitro ADME. The note with it: for Apical-to-basolateral membrane permeability (class in words): bidirectional CaCo-2 assay; for Mass balance A-B: hydrochloride salts used. How it is done: as §1
Data set [5] has as its target human albumin (Homo sapiens, UniProt P02768). Briefly: Plasma protein binding estimated from retention on human albumin columns. The note with it: human albumin chromatography column, chromatographic estimate, read-out: Plasma protein binding PPB (converted). In kind it is in vitro ADME.
Data set [6] can be described thus: Protein binding by ultracentrifugation, human liver microsomes. It counts as in vitro ADME. The note with it: pH 7.4, 0.4 mg/ml protein, read-out: fu human liver microsomes. How it is done: Protein binding of 1 µM NDD-713.HCl and -825.HCl in human and rat plasma, as well as human liver microsomes, was assessed by using the ultracentrifugation technique. Frozen human plasma (Australian Red Cross Blood Service, Melbourne, VIC, Australia) and rat plasma (male Sprague-Dawley rats; Charles River, Margate, Kent, United Kingdom) were thawed at 37°C. Human liver microsomes (XenoTech) were suspended in 0.1 M phosphate buffer (pH 7.4) at protein concentrations of 0.4 mg/ml. Samples were collected immediately as stability reference controls. Spiked plasma samples (but not microsome samples) were incubated at 37°C for 1 h. […] NDD-713.HCl and -825.HCl concentrations of noncentrifuged matrix and protein-free supernatant were determined by UPLC-MS relative to calibration standards prepared in the respective matrices. Total concentration (Ctotal) was the average measured concentration in […] samples maintained at 37°C, and unbound concentration (Cunbound) was the average measured concentration in protein-free supernatants from centrifuged samples (n = 3). The compound unbound fraction (fu) was calculated: fu = Cunbound/Ctotal. Compound degradation was assessed by comparing concentrations in noncentrifuged plasma samples that were incubated at 37°C with concentrations measured in the t = 0 noncentrifuged samples. […]

A short description of data set [7]: Metabolic stability, human liver microsomes. It counts as in vitro ADME. The note with it: in the presence of NAD+, NADPH, or in the absence of cofactors. How it is done: NDD-713.HCl and -825.HCl were incubated (0.02, 0.1, or 0.5 μM at 37°C, 120 min) with human (XenoTech, Kansas City, KS, USA) or rat liver microsomes (BD Biosciences, Brea, CA, USA) at 0.4 mg/ml protein concentration. Metabolic reaction was initiated by addition of NADPH-regenerating system or NADPH-regenerating system with uridine diphosphate glucuronic acid. Samples were quenched at time points by acetonitrile addition. Control samples, which contained neither NADPH, nor uridine diphosphate glucuronic acid, were monitored for degradation. Compound concentrations were determined by ultraperformance LC-MS (UPLC-MS) relative to calibration standards that were prepared in quenched liver microsomes and fitted to exponential decay functions to determine first-order rate constants (k) for substrate depletion. These were used to calculate in vitro intrinsic clearance (CLint) values: CLint = k/microsomal protein content (0.4 mg protein/ml). Metabolic stability assays that used rat liver cytosol (BD Biosciences), human cryopreserved hepatocytes, or rat hepatocytes were carried out similarly. Average viable cell concentrations were determined by Trypan Blue exclusion methods (in the absence of test compounds). Studies were carried out by CDCO.

For data set [8], the system named is Salmonella typhimurium strains TA98, TA100, TA1535, and TA1537. The note with it: concentrations of ≤10 μM, with or without rat liver S9. How it is done: Ames fluctuation assays were performed by using Salmonella typhimurium strains TA98, TA100, TA1535, and TA1537 to detect frame-shifts and base substitutions that led to missense mutations in liquid culture in 384-well plates. Bacterial plates were incubated with serially diluted NDD-713 and -825 solutions for 96 h, and bacterial growth was measured spectrophotometrically by using a pH color-change indicator in response to bacterial growth acidification. Assays were conducted with or without metabolic activation via addition of rat liver S9 fraction. Bacteriocidal or bacteriostatic effects were assessed by using a bacterial cytotoxicity assay that was conducted in parallel with Ames fluctuation assays. Reference compounds were 2-aminoanthracene, 9-aminoacridine, quercetin, streptozotocin (genotoxicity), and mitomycin C (bacterial cytotoxicity). Study was carried out by Cerep (Celle L’Evescault, France).

T1 sequence (P08588 whole entry): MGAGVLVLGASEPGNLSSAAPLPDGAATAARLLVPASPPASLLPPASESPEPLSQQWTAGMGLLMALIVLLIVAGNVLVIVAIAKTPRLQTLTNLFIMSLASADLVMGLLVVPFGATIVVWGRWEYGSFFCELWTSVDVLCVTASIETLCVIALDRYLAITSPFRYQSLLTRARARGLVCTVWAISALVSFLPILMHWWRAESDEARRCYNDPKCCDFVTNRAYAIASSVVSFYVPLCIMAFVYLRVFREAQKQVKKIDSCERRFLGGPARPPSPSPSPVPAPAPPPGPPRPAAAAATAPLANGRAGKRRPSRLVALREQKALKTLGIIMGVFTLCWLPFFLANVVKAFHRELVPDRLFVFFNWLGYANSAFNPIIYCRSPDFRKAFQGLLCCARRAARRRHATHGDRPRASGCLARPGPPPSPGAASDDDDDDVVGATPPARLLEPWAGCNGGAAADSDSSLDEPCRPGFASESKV
human albumin, sequence (P02768 25-609): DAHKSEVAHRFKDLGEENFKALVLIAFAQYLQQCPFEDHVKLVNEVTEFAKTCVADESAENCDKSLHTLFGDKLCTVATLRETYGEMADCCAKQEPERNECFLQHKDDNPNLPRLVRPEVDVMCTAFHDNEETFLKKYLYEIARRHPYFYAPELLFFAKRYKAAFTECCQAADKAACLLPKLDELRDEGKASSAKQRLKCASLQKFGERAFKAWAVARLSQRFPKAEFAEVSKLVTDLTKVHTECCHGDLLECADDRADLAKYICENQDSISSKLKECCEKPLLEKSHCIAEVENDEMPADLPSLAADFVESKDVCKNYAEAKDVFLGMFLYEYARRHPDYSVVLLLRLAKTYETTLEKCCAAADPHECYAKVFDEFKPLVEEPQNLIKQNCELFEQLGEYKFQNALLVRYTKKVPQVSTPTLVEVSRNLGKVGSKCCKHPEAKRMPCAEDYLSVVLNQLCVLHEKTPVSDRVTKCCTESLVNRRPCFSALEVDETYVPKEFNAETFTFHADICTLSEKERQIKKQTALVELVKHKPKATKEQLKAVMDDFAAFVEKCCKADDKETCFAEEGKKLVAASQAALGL

The Kd is a measure of binding affinity in units of concentration. A word on the Papp A→B: it is the apparent permeability from the apical to the basolateral side of a cell layer. The term microsomal CLint denotes the capacity of the preparation to metabolise the compound, expressed as a volume cleared per time. For the compound `NC(=O)c1ccc(OCCNC[C@H](O)COc2ccc3c(c2)OC[C@@H](COCC2CC2)O3)cc1` [NDD-713], in data set [1], the Kd was 15.1 nM and the “SI1a (in vitro binding) = Kd,β2/Kd,β1” value is listed as 589. Further, the “Human β1 vs. β2 selectivity Kd,β2/Kd,β1” value in data set [1] (from 3H-CGP12177 whole-cell binding) came out at 589. For the same compound, in data set [2], the “Maximum 3H-cAMP response relative to isoprenaline” value was “No ^3H-cAMP responses were observed”. Further, in data set [3], the efflux ratio at 90 min, 20 µM was under 3 and the apical-to-basolateral permeability (Papp A→B) at 90 min, 20 µM was determined as 25 ± 4 ×10⁻⁶ cm/s. In addition, in data set [4], the “Apical-to-basolateral membrane permeability (class in words)” value was “high” and the “Mass balance A-B” value worked out at 76 ± 10%. The fraction unbound in data set [5] was 0.365. For the same compound, in data set [6], the fraction unbound at 4.2 h, 1 µM came out at 0.67. Moreover, the intrinsic clearance (microsomal CLint) in data set [7] is under 0.16 µL/min/mg. Further, the “Genotoxicity in Ames tests” value in data set [8] is “Neither compound displayed genotoxicity”.

For `O=C1NCc2cc(OCCNC[C@H](O)COc3ccc4c(c3)OC[C@@H](COCC3CC3)O4)ccc21` [NDD-825], in data set [1], the Kd is 5.25 nM and the “SI1a (in vitro binding) = Kd,β2/Kd,β1” value stood at 1023. In addition, the “Maximum 3H-cAMP response relative to isoprenaline” value in data set [2] is on record as “No ^3H-cAMP responses were observed”. Moreover, in data set [3], the efflux ratio at 90 min, 20 µM is under 3 and the Papp A→B at 90 min, 20 µM worked out at 6.5 ± 0.5 ×10⁻⁶ cm/s. Further, in data set [4], the “Apical-to-basolateral membrane permeability (class in words)” value is “intermediate” and the “Mass balance A-B” value is 79 ± 11%. In addition, the fraction unbound in data set [5] is 0.265. In addition, the fraction unbound at 4.2 h, 1 µM in data set [6] was 0.63. For the same compound, in data set [7], the microsomal CLint was under 0.16 µL/min/mg. For the same compound, in data set [8], the “Genotoxicity in Ames tests” value was “Neither compound displayed genotoxicity”.
